Source: US20260001928A1 (CORTERIA PHARMACEUTICALS, priority 2022, published 2026)
*1 amine or outer side, *2 acyl side, *3 side chain or, on linkers, in order; H or OH if unused. Where a SMILES comes first, the peptide text is derived from it. Side-chain parts run from the residue outwards. [ ]: non-standard residue; d: D form. The star is where a group is joined. C18 diacid = O=C(O)CCCCCCCCCCCCCCCCC(=O)*; γGlu = O=C(O)[C@H](CCC(=O)[*:2])N[*:1]; αMeK = C[C@](N)(CCCCN)C(=O)O; Api = NC1(C(=O)O)CCNCC1; Nva = CCC[C@H](N)C(=O)O; Dap = NC[C@H](N)C(=O)O; AEEA = NCCOCCOCC(=O)O

Legend:
human CRF2a receptor = molecular target: T1, human CRF2a receptor (Homo sapiens, UniProt Q13324); assay: Activity at human CRF2a receptor, cAMP functional assay in TeloHEAC cells; assay type: cell-based; settings: TeloHEAC cells stably expressing human CRF2a receptor, relative to urocortin 2 (100 nM = 100%)
T1 construct: expressed in transfected cells; host or cells: TeloHEAC cells
T1 sequence (Q13324 1-411): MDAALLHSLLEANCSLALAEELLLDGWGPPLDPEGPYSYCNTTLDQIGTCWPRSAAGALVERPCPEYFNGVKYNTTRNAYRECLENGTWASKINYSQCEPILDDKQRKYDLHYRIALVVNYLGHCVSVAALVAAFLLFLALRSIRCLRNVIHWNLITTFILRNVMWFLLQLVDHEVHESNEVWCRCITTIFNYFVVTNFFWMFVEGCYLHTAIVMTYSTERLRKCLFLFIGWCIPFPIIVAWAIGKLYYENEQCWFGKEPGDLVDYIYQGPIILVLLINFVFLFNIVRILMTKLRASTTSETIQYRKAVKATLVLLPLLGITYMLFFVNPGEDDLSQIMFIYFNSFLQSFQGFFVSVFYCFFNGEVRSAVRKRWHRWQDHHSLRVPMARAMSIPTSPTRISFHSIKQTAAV
In short: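 TeloHEAC cells stably expressing human CRF2a (10000 cells/well, suspended in HBSS/20 mM HEPES with 2 mM IBMX) were exposed to compounds for 30 min at 37 °C. cAMP was read as the 665/620 nm fluorescence ratio after 1 h at room temperature. EC50 was derived relative to 100 nM urocortin 2, set as 100%.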

CFR1R receptor = molecular target: T2, CFR1R receptor (Homo sapiens, UniProt P34998); assay: Activity at anti-target CFR1R receptor, cAMP assay in CRF1R-overexpression CHO-K1 cells; assay type: cell-based; settings: 100% = Sauvagine at 100 nM; for EC50: cAMP
T2 construct: host or cells: CHO-K1 (clone 2)
T2 sequence (P34998 24-415): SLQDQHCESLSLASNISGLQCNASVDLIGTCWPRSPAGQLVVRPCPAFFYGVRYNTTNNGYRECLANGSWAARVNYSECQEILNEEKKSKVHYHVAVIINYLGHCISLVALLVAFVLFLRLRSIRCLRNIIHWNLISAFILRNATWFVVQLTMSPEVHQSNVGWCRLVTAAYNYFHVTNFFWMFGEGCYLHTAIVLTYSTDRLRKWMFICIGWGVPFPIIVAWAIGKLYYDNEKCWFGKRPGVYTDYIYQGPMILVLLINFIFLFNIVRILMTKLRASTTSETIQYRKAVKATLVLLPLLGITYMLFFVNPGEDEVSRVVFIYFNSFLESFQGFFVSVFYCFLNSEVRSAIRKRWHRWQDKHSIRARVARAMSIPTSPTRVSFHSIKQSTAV
In short: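 Uses frozen stocks of CHO-K1 clone 2 cells overexpressing human CRF1R, plated at 4000 cells/well final, with cAMP measured by the same protocol as the TeloHAEC line. Full-activation control: 100 nM Sauvagine.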

| EC50 (human CRF2a receptor) [nM] | Emax (% I) (CFR1R receptor) | EC50 (CFR1R receptor) [nM] | Compound |
| --- | --- | --- | --- |
| 0.87 | 10 | > 250 | CCC[C@H](NC(=O)[C@H](CC(N)=O)NC(=O)[C@@H](NC(=O)[C@H](CCC(=O)O)NC(=O)[C@H](C)NC(=O)[C@H](CCC(N)=O)NC(=O)[C@H](CCC(=O)O)NC(=O)[C@H](CCCNC(=N)N)NC(=O)[C@H](CCC(N)=O)NC(=O)[C@H](CCCCN)NC(=O)[C@H](CCCCN)NC(=O)[C@H](CCC(N)=O)NC(=O)[C@H](CCCCN)NC(=O)[C@H](CCC(=O)O)NC(=O)[C@H](CCC(N)=O)NC(=O)[C@H](CCC(=O)O)NC(=O)[C@H](CC(C)C)NC(=O)[C@H](CC(C)C)NC(=O)[C@@H](NC(=O)[C@H](CCCCN)NC(=O)[C@H](CCCCNC(=O)COCCOCCNC(=O)COCCOCCNC(=O)CC[C@H](NC(=O)CCCCCCCCCCCCCCCCC(=O)O)C(=O)O)NC(=O)[C@H](CC(C)C)NC(=O)[C@H](CCCCN)NC(=O)[C@@H](NC(=O)[C@@H]1CCCN1C(=O)[C@H](NC(=O)[C@H](CC(=O)O)NC(=O)[C@H](CC(C)C)NC(=O)[C@H](CO)NC(=O)[C@H](CC(C)C)NC(=O)[C@@H](NC(=O)[C@@H](NC(C)=O)[C@@H](C)CC)C(C)C)C(C)C)[C@@H](C)CC)[C@@H](C)CC)[C@@H](C)O)C(=O)N[C@@H](CCC(N)=O)C(=O)N[C@H](C(=O)N[C@@H](CC(C)C)C(=O)N[C@@H](C)C(=O)N[C@@H](CCC(N)=O)C(=O)N[C@H](C(N)=O)C(C)C)[C@@H](C)CC [compound 105] (Ac-IVLSLD[dV]PIKLK([AEEA-AEEA-γGlu-C18 diacid])KILLEQEKQKKQREQAETN[Nva]QILAQV-NH2) |
| 0.35 | 6 | > 250 | CC[C@H](C)[C@H](NC(C)=O)C(=O)N[C@H](C(=O)N[C@@H](CC(C)C)C(=O)N[C@@H](CO)C(=O)N[C@@H](CC(C)C)C(=O)N[C@@H](CC(=O)O)C(=O)N[C@@H](C(=O)N1CCC[C@H]1C(=O)N[C@H](C(=O)N[C@@H](CCCCN)C(=O)N[C@@H](CC(C)C)C(=O)N[C@@H](CCCCNC(=O)COCCOCCNC(=O)COCCOCCNC(=O)CC[C@H](NC(=O)CCCCCCCCCCCCCCCCC(=O)O)C(=O)O)C(=O)N[C@@H](CCCCN)C(=O)N[C@H](C(=O)N[C@@H](CC(C)C)C(=O)N[C@@H](CC(C)C)C(=O)N[C@@H](CCC(=O)O)C(=O)N[C@@H](CCC(N)=O)C(=O)N[C@@H](CCC(=O)O)C(=O)N[C@@H](CCCCN)C(=O)N[C@@H](CCC(N)=O)C(=O)N[C@@H](CCCCN)C(=O)N[C@@H](CCCCN)C(=O)N[C@@H](CCC(N)=O)C(=O)N[C@@H](CCCNC(=N)N)C(=O)N[C@@H](CCC(=O)O)C(=O)N[C@@H](CCC(N)=O)C(=O)N[C@@H](C)C(=O)N[C@@H](CCC(=O)O)C(=O)N[C@H](C(=O)N[C@@H](CC(N)=O)C(=O)N[C@@](C)(CCCCN)C(=O)N[C@@H](CCC(N)=O)C(=O)N[C@H](C(=O)N[C@@H](CC(C)C)C(=O)N[C@@H](C)C(=O)N[C@@H](CCC(N)=O)C(=O)N[C@H](C(N)=O)C(C)C)[C@@H](C)CC)[C@@H](C)O)[C@@H](C)CC)[C@@H](C)CC)C(C)C)C(C)C [compound 106] (Ac-IVLSLD[dV]PIKLK([AEEA-AEEA-γGlu-C18 diacid])KILLEQEKQKKQREQAETN[αMeK]QILAQV-NH2) |

Second part, the compound before the results:

| Compound | EC50 (human CRF2a receptor) [nM] | Emax (% I) (CFR1R receptor) | EC50 (CFR1R receptor) [nM] |
| --- | --- | --- | --- |
| CC[C@H](C)[C@H](NC(C)=O)C(=O)N[C@H](C(=O)N[C@@H](CC(C)C)C(=O)N[C@@H](CO)C(=O)N[C@@H](CC(C)C)C(=O)N[C@@H](CC(=O)O)C(=O)N[C@@H](C(=O)N1CCC[C@H]1C(=O)N[C@H](C(=O)N[C@@H](CCCCN)C(=O)N[C@@H](CC(C)C)C(=O)N[C@@H](CCCCNC(=O)COCCOCCNC(=O)COCCOCCNC(=O)CC[C@H](NC(=O)CCCCCCCCCCCCCCCCC(=O)O)C(=O)O)C(=O)N[C@@H](CCCCN)C(=O)N[C@H](C(=O)N[C@@H](CC(C)C)C(=O)N[C@@H](CC(C)C)C(=O)N[C@@H](CCC(=O)O)C(=O)N[C@@H](CCC(N)=O)C(=O)N[C@@H](CCC(=O)O)C(=O)N[C@@H](CCCCN)C(=O)N[C@@H](CCC(N)=O)C(=O)N[C@@H](CCCCN)C(=O)N[C@@H](CCCCN)C(=O)N[C@@H](CCC(N)=O)C(=O)N[C@@H](CCCNC(=N)N)C(=O)N[C@@H](CCC(=O)O)C(=O)N[C@@H](CCC(N)=O)C(=O)N[C@@H](C)C(=O)N[C@@H](CCC(=O)O)C(=O)N[C@H](C(=O)N[C@@H](CC(N)=O)C(=O)N[C@@H](CN)C(=O)N[C@@H](CCC(N)=O)C(=O)N[C@H](C(=O)N[C@@H](CC(C)C)C(=O)N[C@@H](C)C(=O)N[C@@H](CCC(N)=O)C(=O)N[C@H](C(N)=O)C(C)C)[C@@H](C)CC)[C@@H](C)O)[C@@H](C)CC)[C@@H](C)CC)C(C)C)C(C)C [compound 107] (Ac-IVLSLD[dV]PIKLK([AEEA-AEEA-γGlu-C18 diacid])KILLEQEKQKKQREQAETN[Dap]QILAQV-NH2) | 1.43 | 0 | > 250 |
| CC[C@H](C)[C@H](NC(C)=O)C(=O)N[C@H](C(=O)N[C@@H](CC(C)C)C(=O)N[C@@H](CO)C(=O)N[C@@H](CC(C)C)C(=O)N[C@@H](CC(=O)O)C(=O)N[C@@H](C(=O)N1CCC[C@H]1C(=O)N[C@H](C(=O)N[C@@H](CCCCN)C(=O)N[C@@H](CC(C)C)C(=O)N[C@@H](CCCCNC(=O)COCCOCCNC(=O)COCCOCCNC(=O)CC[C@H](NC(=O)CCCCCCCCCCCCCCCCC(=O)O)C(=O)O)C(=O)N[C@@H](CCCCN)C(=O)N[C@H](C(=O)N[C@@H](CC(C)C)C(=O)N[C@@H](CC(C)C)C(=O)N[C@@H](CCC(=O)O)C(=O)N[C@@H](CCC(N)=O)C(=O)N[C@@H](CCC(=O)O)C(=O)N[C@@H](CCCCN)C(=O)N[C@@H](CCC(N)=O)C(=O)N[C@@H](CCCCN)C(=O)N[C@@H](CCCCN)C(=O)N[C@@H](CCC(N)=O)C(=O)N[C@@H](CCCNC(=N)N)C(=O)N[C@@H](CCC(=O)O)C(=O)N[C@@H](CCC(N)=O)C(=O)N[C@@H](C)C(=O)N[C@@H](CCC(=O)O)C(=O)N[C@H](C(=O)N[C@@H](CC(N)=O)C(=O)N[C@@H](CCC(=O)O)C(=O)N[C@@H](CCC(N)=O)C(=O)N[C@H](C(=O)N[C@@H](CC(C)C)C(=O)N[C@@H](C)C(=O)N[C@@H](CCC(N)=O)C(=O)N[C@H](C(N)=O)C(C)C)[C@@H](C)CC)[C@@H](C)O)[C@@H](C)CC)[C@@H](C)CC)C(C)C)C(C)C [compound 108] (Ac-IVLSLD[dV]PIKLK([AEEA-AEEA-γGlu-C18 diacid])KILLEQEKQKKQREQAETNEQILAQV-NH2) | 1.14 | 4 | > 250 |
| CC[C@H](C)[C@H](NC(C)=O)C(=O)N[C@H](C(=O)N[C@@H](CC(C)C)C(=O)N[C@@H](CO)C(=O)N[C@@H](CC(C)C)C(=O)N[C@@H](CC(=O)O)C(=O)N[C@@H](C(=O)N1CCC[C@H]1C(=O)N[C@H](C(=O)N[C@@H](CCCCN)C(=O)N[C@@H](CC(C)C)C(=O)N[C@@H](CCCCNC(=O)COCCOCCNC(=O)COCCOCCNC(=O)CC[C@H](NC(=O)CCCCCCCCCCCCCCCCC(=O)O)C(=O)O)C(=O)N[C@@H](CCCCN)C(=O)N[C@H](C(=O)N[C@@H](CC(C)C)C(=O)N[C@@H](CC(C)C)C(=O)N[C@@H](CCC(=O)O)C(=O)N[C@@H](CCC(N)=O)C(=O)N[C@@H](CCC(=O)O)C(=O)N[C@@H](CCCCN)C(=O)N[C@@H](CCC(N)=O)C(=O)N[C@@H](CCCCN)C(=O)N[C@@H](CCCCN)C(=O)N[C@@H](CCC(N)=O)C(=O)N[C@@H](CCCNC(=N)N)C(=O)N[C@@H](CCC(=O)O)C(=O)N[C@@H](CCC(N)=O)C(=O)N[C@@H](C)C(=O)N[C@@H](CCC(=O)O)C(=O)N[C@H](C(=O)N[C@@H](CC(N)=O)C(=O)NC1(C(=O)N[C@@H](CCC(N)=O)C(=O)N[C@H](C(=O)N[C@@H](CC(C)C)C(=O)N[C@@H](C)C(=O)N[C@@H](CCC(N)=O)C(=O)N[C@H](C(N)=O)C(C)C)[C@@H](C)CC)CCNCC1)[C@@H](C)O)[C@@H](C)CC)[C@@H](C)CC)C(C)C)C(C)C [compound 109] (Ac-IVLSLD[dV]PIKLK([AEEA-AEEA-γGlu-C18 diacid])KILLEQEKQKKQREQAETN[Api]QILAQV-NH2) | 1 | 4 | > 250 |
